In patent US20260167619A2, “INDOLINE COMPOUNDS AND DERIVATIVES AS EGFR INHIBITORS” (BeOne Medicines I GmbH, priority 2020, published 2026):

How the values were obtained:
BaF3-WT cells = BaF3-WT cells (Homo sapiens, UniProt P00533); experiment: Cell antiproliferation assay (CellTiter-Glo), BaF3-WT; type: cell-based; conditions: 48 h treatment, read-out: BaF3-WT IC50
Method in brief: (§1)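 Cells exposed 48 h to 8 doses from 5-fold serial dilution (500× DMSO stocks from 5 mM), final 0.2% DMSO. Viability by CellTiter-Glo luminescence; IC50 from four-parameter fit of percent inhibition versus concentration.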

BaF3-Del_TM_CS cells = BaF3-Del_TM_CS cells (Homo sapiens, UniProt P00533, T790M/C797S, cells depend on it, form not given); experiment: Cell antiproliferation assay (CellTiter-Glo), BaF3-Del_TM_CS; type: cell-based; conditions: 48 h treatment, read-out: BaF3-Del_TM_CS IC50
Method in brief: as §1

[1] = target: T1, EGFR(L858R_T790M_C797S) (aa695-end, Invitrogen) (Homo sapiens, UniProt P00533, C797S/L858R/T790M); experiment: Biochemical EGFR inhibition assay (TR-FRET), L858R/T790M/C797S mutant; conditions: ATP at Km, 15 min pre-incubation, 60 min reaction; read-out: LR_TM_CS (Km ATP) IC50
T1 construct: purchased Invitrogen
Method in brief: (§2)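 Signal was the 665 nm/620 nm emission ratio (excitation 337 nm) from anti-phosphotyrosine Eu cryptate and streptavidin-XL665 bound to phosphorylated biotin-poly GT. Reactions ran 60 min at room temperature with ATP at its Km after 15 min compound preincubation. Residual activity versus concentration was fitted to a four-parameter logistic for IC50.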

[2] = target: EGFR(Dell9_T790M_C797S) (aa 669-1210, in house) (Homo sapiens, UniProt P00533, T790M/C797S, form not given); experiment: Biochemical EGFR inhibition assay (TR-FRET), Del19/T790M/C797S mutant; conditions: ATP at Km, 15 min pre-incubation, 60 min reaction; read-out: Del_TM_CS (Km ATP) IC50
Method in brief: as §2

BaF3-LR_TM_CS cells = BaF3-LR_TM_CS cells (Homo sapiens, UniProt P00533, T790M/C797S/L858R, cells depend on it); experiment: Cell antiproliferation assay (CellTiter-Glo), BaF3-LR_TM_CS; type: cell-based; conditions: 48 h treatment, read-out: BaF3-LR_TM_CS IC50
Method in brief: as §1

[3] = target: T2, EGFR (aa668-1210, Invitrogen) (Homo sapiens, UniProt P00533); experiment: Biochemical EGFR inhibition assay (TR-FRET), wild-type EGFR; conditions: ATP at Km, 15 min pre-incubation, 60 min reaction; read-out: WT (Km ATP) IC50
T2 construct: EGFR (aa668-1210, Invitrogen); purchased Invitrogen
Method in brief: as §2

T2 sequence (P00533 668-1210): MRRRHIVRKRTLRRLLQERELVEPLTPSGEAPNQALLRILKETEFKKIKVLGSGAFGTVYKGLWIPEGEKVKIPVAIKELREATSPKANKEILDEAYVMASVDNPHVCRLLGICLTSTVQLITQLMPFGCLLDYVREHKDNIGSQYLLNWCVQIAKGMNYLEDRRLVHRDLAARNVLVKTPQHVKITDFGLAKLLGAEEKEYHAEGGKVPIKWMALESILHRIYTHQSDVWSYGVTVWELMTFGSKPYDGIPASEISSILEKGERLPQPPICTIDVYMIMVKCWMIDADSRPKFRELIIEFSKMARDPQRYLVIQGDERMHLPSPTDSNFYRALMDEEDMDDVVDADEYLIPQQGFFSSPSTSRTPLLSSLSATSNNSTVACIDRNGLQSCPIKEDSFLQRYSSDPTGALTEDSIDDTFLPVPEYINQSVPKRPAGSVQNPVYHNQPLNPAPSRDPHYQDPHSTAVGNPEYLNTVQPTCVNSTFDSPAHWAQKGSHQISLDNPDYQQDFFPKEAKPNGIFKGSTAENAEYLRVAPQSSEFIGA
Sequence of BaF3-WT cells (P00533 whole entry, change not shown): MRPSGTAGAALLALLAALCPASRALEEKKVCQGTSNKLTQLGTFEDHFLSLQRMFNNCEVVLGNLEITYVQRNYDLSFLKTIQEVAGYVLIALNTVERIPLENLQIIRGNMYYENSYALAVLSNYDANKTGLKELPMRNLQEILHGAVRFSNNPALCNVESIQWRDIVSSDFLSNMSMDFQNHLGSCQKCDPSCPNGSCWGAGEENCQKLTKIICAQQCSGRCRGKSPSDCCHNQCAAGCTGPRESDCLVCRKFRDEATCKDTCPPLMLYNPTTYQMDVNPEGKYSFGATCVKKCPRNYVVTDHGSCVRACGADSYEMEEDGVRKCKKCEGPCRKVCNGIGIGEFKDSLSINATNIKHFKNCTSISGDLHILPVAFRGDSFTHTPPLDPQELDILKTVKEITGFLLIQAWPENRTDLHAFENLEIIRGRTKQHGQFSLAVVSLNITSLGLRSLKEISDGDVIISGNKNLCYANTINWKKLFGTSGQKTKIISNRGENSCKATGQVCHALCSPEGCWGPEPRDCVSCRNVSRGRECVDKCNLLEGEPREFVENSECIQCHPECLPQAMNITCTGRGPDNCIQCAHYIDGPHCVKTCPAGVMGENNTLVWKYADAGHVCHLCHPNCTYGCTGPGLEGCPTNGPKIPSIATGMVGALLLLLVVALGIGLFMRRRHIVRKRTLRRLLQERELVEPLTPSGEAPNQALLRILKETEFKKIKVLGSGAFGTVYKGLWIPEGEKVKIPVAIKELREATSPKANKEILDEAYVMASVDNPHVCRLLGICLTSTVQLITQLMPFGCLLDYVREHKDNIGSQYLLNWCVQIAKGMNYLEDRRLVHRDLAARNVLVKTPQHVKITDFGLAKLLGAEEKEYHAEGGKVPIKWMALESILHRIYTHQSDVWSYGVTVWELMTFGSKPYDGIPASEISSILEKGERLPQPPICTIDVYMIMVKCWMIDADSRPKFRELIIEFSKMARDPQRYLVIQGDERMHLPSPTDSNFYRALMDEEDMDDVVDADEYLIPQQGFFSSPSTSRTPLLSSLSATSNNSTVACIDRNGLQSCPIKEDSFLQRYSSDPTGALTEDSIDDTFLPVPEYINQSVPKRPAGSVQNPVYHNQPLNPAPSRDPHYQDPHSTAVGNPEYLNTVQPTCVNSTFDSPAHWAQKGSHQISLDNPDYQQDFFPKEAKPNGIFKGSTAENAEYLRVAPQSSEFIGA
T1 sequence (P00533 695-1210 T790M/C797S/L858R): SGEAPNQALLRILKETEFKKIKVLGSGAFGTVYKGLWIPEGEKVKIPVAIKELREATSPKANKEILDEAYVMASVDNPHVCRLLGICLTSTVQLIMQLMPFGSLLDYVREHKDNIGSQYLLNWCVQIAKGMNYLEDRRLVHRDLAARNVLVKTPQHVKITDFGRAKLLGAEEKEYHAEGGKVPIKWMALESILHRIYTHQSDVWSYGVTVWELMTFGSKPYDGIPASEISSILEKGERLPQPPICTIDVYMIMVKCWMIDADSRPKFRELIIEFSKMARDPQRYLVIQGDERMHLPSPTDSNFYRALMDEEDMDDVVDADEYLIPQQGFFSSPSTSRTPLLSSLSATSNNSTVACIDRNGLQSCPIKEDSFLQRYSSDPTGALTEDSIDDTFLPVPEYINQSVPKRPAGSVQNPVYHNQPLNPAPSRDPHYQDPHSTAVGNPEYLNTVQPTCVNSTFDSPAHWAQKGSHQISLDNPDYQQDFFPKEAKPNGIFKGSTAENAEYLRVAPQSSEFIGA
Sequence of EGFR(Dell9_T790M_C797S) (aa 669-1210, in house) (P00533 with tags, fused parts or gaps DEL746-750/T790M/C797S, form open): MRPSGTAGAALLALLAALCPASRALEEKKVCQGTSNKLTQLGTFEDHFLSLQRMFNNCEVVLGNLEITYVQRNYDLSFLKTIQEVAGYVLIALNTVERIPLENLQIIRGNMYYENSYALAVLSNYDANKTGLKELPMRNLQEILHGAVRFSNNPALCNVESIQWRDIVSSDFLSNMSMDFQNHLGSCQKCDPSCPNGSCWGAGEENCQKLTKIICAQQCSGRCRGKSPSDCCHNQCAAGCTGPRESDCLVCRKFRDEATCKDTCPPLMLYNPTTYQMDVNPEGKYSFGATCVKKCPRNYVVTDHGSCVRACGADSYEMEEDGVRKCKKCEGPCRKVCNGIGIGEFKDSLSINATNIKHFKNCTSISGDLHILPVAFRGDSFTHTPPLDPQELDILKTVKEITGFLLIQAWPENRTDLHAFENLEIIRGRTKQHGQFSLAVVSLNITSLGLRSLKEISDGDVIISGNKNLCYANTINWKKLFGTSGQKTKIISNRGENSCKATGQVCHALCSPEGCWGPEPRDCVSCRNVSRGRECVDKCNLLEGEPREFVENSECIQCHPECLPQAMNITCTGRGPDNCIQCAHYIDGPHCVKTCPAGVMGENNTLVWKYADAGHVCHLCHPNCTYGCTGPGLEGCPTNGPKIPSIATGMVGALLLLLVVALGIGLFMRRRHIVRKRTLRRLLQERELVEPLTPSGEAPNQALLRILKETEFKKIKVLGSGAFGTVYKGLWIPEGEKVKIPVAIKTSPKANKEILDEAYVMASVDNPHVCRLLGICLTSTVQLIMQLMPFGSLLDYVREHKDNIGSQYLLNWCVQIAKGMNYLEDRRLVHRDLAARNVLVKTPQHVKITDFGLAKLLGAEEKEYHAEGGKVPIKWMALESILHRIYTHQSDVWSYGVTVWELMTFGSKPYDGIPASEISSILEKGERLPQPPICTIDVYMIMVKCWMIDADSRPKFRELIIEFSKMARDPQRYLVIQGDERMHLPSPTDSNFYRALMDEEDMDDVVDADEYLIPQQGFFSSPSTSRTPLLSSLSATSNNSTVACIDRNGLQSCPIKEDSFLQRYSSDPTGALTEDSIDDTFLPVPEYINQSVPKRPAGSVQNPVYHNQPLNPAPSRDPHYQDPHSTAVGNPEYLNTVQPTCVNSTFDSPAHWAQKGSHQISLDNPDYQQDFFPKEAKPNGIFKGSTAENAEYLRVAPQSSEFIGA
Sequence of BaF3-Del_TM_CS cells (P00533 with tags, fused parts or gaps DEL746-750/T790M/C797S, form open): as above

| GI50 (BaF3-WT cells) [nM] | GI50 (BaF3-Del_TM_CS cells) [nM] | IC50 [1] [nM] | IC50 [2] [nM] | GI50 (BaF3-LR_TM_CS cells) [nM] | IC50 [3] [nM] | SMILES |
| --- | --- | --- | --- | --- | --- | --- |
| 1480 | 29.3 | 1.4 | 1.7 | 66.5 | 109 | COc1cc(N2CCC3(CCN(C)CC3)CC2)c(Cl)cc1Nc1nc(Nc2cccc3c2N(S(C)(=O)=O)CC3)c2cc[nH]c2n1 [Example 96, N^2-(5-chloro-2-methoxy-4-(9-methyl-3,9-diazaspiro[5.5]undecan-3-yl)phenyl)-N^4-(1-(methylsulfonyl)indolin-7-yl)-7H-pyrrolo[2,3-d]pyrimidine-2,4-diamine] |
| 987 | 90.5 | 1.3 | 0.88 | 350 | 0.6 | CCN1CCN(C2CCN(c3ccc(Nc4nc(Nc5cccc6c5N(S(C)(=O)=O)CC6)c5cn[nH]c5n4)cc3F)CC2)CC1 [Example 76, N^6-(4-(4-(4-ethylpiperazin-1-yl)piperidin-1-yl)-3-fluorophenyl)-N^4-(1-(methylsulfonyl)indolin-7-yl)-1H-pyrazolo[3,4-d]pyrimidine-4,6-diamine] |
| 511 | 14.6 | 0.48 | 0.36 | 66.1 | 0.64 | COc1cc(N2CCC(N3CCN(C)CC3)CC2)ccc1Nc1ncc(Cl)c(Nc2ccc(Br)c3c2N(S(C)(=O)=O)CC3)n1 [Example 2, N^4-(4-bromo-1-(methylsulfonyl)indolin-7-yl)-5-chloro-N^2-(2-methoxy-4-(4-(4-methylpiperazin-1-yl)piperidin-1-yl)phenyl)pyrimidine-2,4-diamine] |
| 411 | 7.59 | 0.3 | 0.2 | 37.3 | 0.4 | COc1cc(N2CCC(N3CCN(C)CC3)CC2)ccc1Nc1ncc(Cl)c(Nc2cccc3c2N(S(C)(=O)=O)CC3)n1 [Example 30, 5-chloro-N^2-(2-methoxy-4-(4-(4-methylpiperazin-1-yl)piperidin-1-yl)phenyl)-N^4-(1-(methylsulfonyl)indolin-7-yl)pyrimidine-2,4-diamine] |
| 394 | 38.3 | 1.2 | 1.6 | 61.3 | 106 | CN1CCN(C2CCN(c3ccc(Nc4nc(Nc5cccc6c5N(S(C)(=O)=O)CC6)c5cc[nH]c5n4)c4c3CCO4)CC2)CC1 [Example 125, N^2-(4-(4-(4-methylpiperazin-1-yl)piperidin-1-yl)-2,3-dihydrobenzofuran-7-yl)-N^4-(1-(methylsulfonyl)indolin-7-yl)-7H-pyrrolo[2,3-d]pyrimidine-2,4-diamine] |
| 610 | 6.06 | 0.67 | 0.51 | 15.4 | 0.81 | CCc1cc(Nc2ncc(Cl)c(Nc3cccc4c3N(S(C)(=O)=O)CC4)n2)c(OC)cc1N1CCC(N2CCN(C)CC2)CC1 [Example 41, 5-chloro-N^2-(5-ethyl-2-methoxy-4-(4-(4-methylpiperazin-1-yl)piperidin-1-yl)phenyl)-N^4-(1-(methylsulfonyl)indolin-7yl)pyrimidine-2,4-diamine] |
| 2730 | 19 | 1 | 0.63 | 176 | 14 | CN1CCN(C2CCN(c3ccc(Nc4ncc(Br)c(Nc5cccc6c5N(S(C)(=O)=O)CC6)n4)c4c3CCO4)CC2)CC1 [Example 50, 5-bromo-N^2-(4-(4-(4-methylpiperazin-1-yl)piperidin-1-yl)-2,3-dihydrobenzofuran-7-yl)-N^4-(1-(methylsulfonyl)indolin-7-yl)pyrimidine-2,4-diamine] |
| 2280 | 453 | 5.5 | 38 | 377 | 37 | COc1cc(N2CCC(N3CCN(C)CC3)CC2)ccc1Nc1ncc(Cl)c(Nc2cccc3c2N(S(=O)(=O)CC2CC(F)(F)C2)CC3)n1 [Example 11, 5-chloro-N^4-(1-(((3,3-difluorocyclobutyl)methyl)sulfonyl)indolin-7-yl)-N^2-(2-methoxy-4-(4-(4-methylpiperazin-1-yl)piperidin-1-yl)phenyl)pyrimidine-2,4-diamine] |
| 466 | 12 | 0.27 | 0.17 | 57.2 | 0.49 | COc1cc(N2CCC(N3CCN(C)CC3)CC2)ccc1Nc1ncc(Cl)c(Nc2ccc(C)c3c2N(S(C)(=O)=O)CC3)n1 [Example 4, 5-chloro-N^2-(2-methoxy-4-(4-(4-methylpiperazin-1-yl)piperidin-1-yl)phenyl)-N^4-(4-methyl-1-(methylsulfonyl)indolin-7-yl)pyrimidine-2,4-diamine] |
